Source: paper PMC8155176, “Reversible modulation of circadian time with chronophotopharmacology” (Nature Communications, 2021)

Biological target: T1, CKIδ (Homo sapiens, UniProt P48730)
T1 construct: purchased Eurofins 14-520
T1 sequence (P48730 1-294 limits assumed): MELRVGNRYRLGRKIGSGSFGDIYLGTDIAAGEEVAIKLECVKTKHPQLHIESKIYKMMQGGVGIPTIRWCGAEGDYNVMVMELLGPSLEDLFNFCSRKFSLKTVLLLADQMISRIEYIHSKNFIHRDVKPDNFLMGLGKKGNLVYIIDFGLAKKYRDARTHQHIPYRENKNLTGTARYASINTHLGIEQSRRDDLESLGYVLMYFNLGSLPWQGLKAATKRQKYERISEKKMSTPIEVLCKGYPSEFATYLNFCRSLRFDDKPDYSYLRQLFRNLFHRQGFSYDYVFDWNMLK
Assay: In vitro kinase assay (Kinase Glo), CKIδ
Type: biochemical
Conditions: green light 530 nm vs dark
Description: A stock solution of 7.4 mM in DMSO was prepared and thermally adapted by heating to c.a. 100 °C for 1 min. Two series of eight samples were prepared with consecutive three-time dilutions from the stock solution. One of the series (‘dark’ samples) was prepared in dark Eppendorf tube, the other series (‘light’ samples) was pre-irradiated with UV light (365 nm, UV lamp Spectroline, ENB-280/FE, 1 × 8 Watt) for 45 min. For compound 9, 1 mM solution in DMSO was thermally adapted by heating to 80 °C for 2 min and split into two vials. One vial was kept in the dark and the other was irradiated with green light (530 nm, 3x Nichia NCSG219B-V1, 3 × 550 mW, Sahlmann Photochemical Solutions) for 60 min. Both dark-kept and irradiated samples were subjected to 8-point 3-fold dilutions. All the solutions were applied to the well plate under a red lamp in the dark room in order to prevent ambient-light-induced photo-isomerization. […]
By employing this method, all reactions were started at the same time, minimizing variance between different samples. […] After the incubation, 10 μL Kinase Glo® (Promega) was applied into the wells and the luminescent signal was recorded by a plate reader (BioTek Synergy H1 or Cytation). […]
The data obtained from the in vitro kinase assay was analyzed using GraphPad software, in which the luminescence outcome is normalized. […]

Question: With `CC(C)n1cnc2c(NCc3ccc(F)c(/N=N/c4c(F)cccc4F)c3F)ncnc21` [Compound 9] as the molecule, how does the “ratio of CKIδ IC50 of cis-isomer to trans-isomer” value read?
Answer: The value was 3.7 times.
